Values joined by “and” are separate entries in the source; they are usually repeats but may differ in a detail not shown here. Identical values can stand only once. Like-named read-outs stand apart in the source and are kept apart here.
Key:
T1-V654A = experiment: CellTiter-Glo (CTG) GR50, T1-V654A; settings: Homo sapiens
PDGFRA-D842V = target: T1, PDGFRA-D842V (Homo sapiens, UniProt P16234, D842V); experiment: Activity-based HTRF KinEASE assay, PDGFRA-D842V; format: biochemical
T1 construct: purchased Invitrogen PV4203 (lot #2343231B)

ZR-75-1 = experiment: CellTiter-Glo (CTG) EC50, ZR-75-1 breast cancer control cell line; format: cell-based, human; settings: Homo sapiens
Protocol: (§1) Cell line authenticity was confirmed by STR analysis at Eurofins Genomics. All cell lines were tested regularly for mycoplasma contamination using the Mycoplasmacheck Service at Eurofins Genomics. […] Following incubation for 24 h in a humidified atmosphere at 37 °C and 5% CO2, cells were treated with inhibitors in serial dilutions ranging from 30 µM down to 0.1 nM using an Echo650 acoustic liquid handler (Beckman Coulter). Cell viability was analyzed on day 5 using the CellTiter-Glo® assay (Promega) using 500 ms integration time. The obtained data were normalized to the plate positive control (30 µM staurosporine) and negative control (DMSO) and subsequently analyzed and fitted with the Quattro Software Suite (Quattro Research) using a four-parameter logistic model. As quality control, the Z’-factor was calculated from 16 positive and negative control values. Only assay results showing a Z’-factor ≥0.5 were used for further analysis. All experimental points were measured in duplicates for each plate and were independently replicated in at least three plates.

GIST-T1 = experiment: CellTiter-Glo (CTG) GR50, GIST-T1; settings: Homo sapiens
T1-a-5258 = experiment: CellTiter-Glo (CTG) GR50, T1-a-5258; settings: Homo sapiens
T1-T670I = experiment: CellTiter-Glo (CTG) GR50, T1-T670I; settings: Homo sapiens
SK-LMS-1 = experiment: CellTiter-Glo (CTG) GR50, SK-LMS-1 control cell line; settings: for CTG GR50 SK-LMS-1, single determinations: raw data of Supp. Tab. 2, independent experiments, unit from Supp. Tab. 2; for CTG GR50 SK-LMS-1: mean ± s.d., n = 3, control cell line
GIST-48B = experiment: CellTiter-Glo (CTG) GR50, GIST-48B control cell line (off-target toxicity); settings: ratio of GR50 values; for GIST-48B/D842V: source data sheet
KIT-D816H = KIT-D816H (Homo sapiens, UniProt P10721, D816H); experiment: Activity-based HTRF KinEASE assay, KIT-D816H; format: biochemical
MDA-MB-175VII = experiment: CellTiter-Glo (CTG) EC50, MDA-MB-175VII breast cancer control cell line; format: cell-based, human; settings: Homo sapiens, MDA-MB-175-VII
Protocol: as §1

[1] = MDCKII-MDR1 permeability assay; settings: dog; for Papp B→A at 2 h, 10 µM: MDCK-MDR1
MDR1 = experiment: MDCKII-MDR1 permeability assay; settings: dog; for efflux ratio at 2 h, 10 µM: MDCK-MDR1; for recovery at 2 h, 10 µM: MDCKII-MDR1, assay conc. 10
[2] = read-out: CTG GR50 T1-V654A, single determinations, raw data of Supp. Tab. 1, independent experiments, unit from Supp. Tab. 1
[3] = read-out: KIT CTG GR50 T1-V654A, mean ± s.d., n ≥ 3 (* n = 2 for ava)
[4] = mean ± s.d., n ≥ 3, ATP at KM (14 µM), read-out: HTRF IC50 PDGFRA-D842V
[5] = raw data of Table 1, independent experiments 1-3, unit from Table 1, read-out: HTRF IC50 PDGFRA-D842V, single determinations
[6] = ZR-75-1, mean ± s.d., n = 3, control cell line, read-out: CTG EC50 ZR-75-1
[7] = ZR-75-1, raw data of Supp. Tab. 2, independent experiments, unit from Supp. Tab. 2, read-out: CTG EC50 ZR-75-1, single determinations
[8] = GISTT1, read-out: CTG GR50 GIST-T1, single determinations, raw data of Table 1, independent experiments, unit from Table 1
[9] = GISTT1, read-out: KIT CTG GR50 GIST-T1, mean ± s.d., n ≥ 3, GR50 half-maximal growth inhibition rate
[10] = read-out: CTG GR50 T1-a-5258, single determinations, raw data of Supp. Tab. 1, independent experiments, unit from Supp. Tab. 1
[11] = read-out: PDGFRA CTG GR50 T1-a-5258, mean ± s.d., n ≥ 3, triple mutant D842V, G652E, V658A
[12] = read-out: CTG GR50 T1-T670I, single determinations, raw data of Supp. Tab. 1, independent experiments, unit from Supp. Tab. 1
[13] = read-out: KIT CTG GR50 T1-T670I, mean ± s.d., n ≥ 3
[14] = mean ± s.d., n ≥ 3, ATP at KM (12 µM), read-out: HTRF IC50 KIT-D816H
[15] = raw data of Table 1, independent experiments, unit from Table 1, read-out: HTRF IC50 KIT-D816H, single determinations
[16] = read-out: CTG EC50 MDA-MB-175VII, mean ± s.d., n = 3, control cell line
[17] = read-out: CTG EC50 MDA-MB-175VII, single determinations, raw data of Supp. Tab. 2, independent experiments, unit from Supp. Tab. 2
[18] = MDCK-MDR1, MDCKII-MDR1 (Papp A→B), at 10 µM, 2 h, 37 °C, unit inferred

T1 sequence (P16234 24-1089 D842V): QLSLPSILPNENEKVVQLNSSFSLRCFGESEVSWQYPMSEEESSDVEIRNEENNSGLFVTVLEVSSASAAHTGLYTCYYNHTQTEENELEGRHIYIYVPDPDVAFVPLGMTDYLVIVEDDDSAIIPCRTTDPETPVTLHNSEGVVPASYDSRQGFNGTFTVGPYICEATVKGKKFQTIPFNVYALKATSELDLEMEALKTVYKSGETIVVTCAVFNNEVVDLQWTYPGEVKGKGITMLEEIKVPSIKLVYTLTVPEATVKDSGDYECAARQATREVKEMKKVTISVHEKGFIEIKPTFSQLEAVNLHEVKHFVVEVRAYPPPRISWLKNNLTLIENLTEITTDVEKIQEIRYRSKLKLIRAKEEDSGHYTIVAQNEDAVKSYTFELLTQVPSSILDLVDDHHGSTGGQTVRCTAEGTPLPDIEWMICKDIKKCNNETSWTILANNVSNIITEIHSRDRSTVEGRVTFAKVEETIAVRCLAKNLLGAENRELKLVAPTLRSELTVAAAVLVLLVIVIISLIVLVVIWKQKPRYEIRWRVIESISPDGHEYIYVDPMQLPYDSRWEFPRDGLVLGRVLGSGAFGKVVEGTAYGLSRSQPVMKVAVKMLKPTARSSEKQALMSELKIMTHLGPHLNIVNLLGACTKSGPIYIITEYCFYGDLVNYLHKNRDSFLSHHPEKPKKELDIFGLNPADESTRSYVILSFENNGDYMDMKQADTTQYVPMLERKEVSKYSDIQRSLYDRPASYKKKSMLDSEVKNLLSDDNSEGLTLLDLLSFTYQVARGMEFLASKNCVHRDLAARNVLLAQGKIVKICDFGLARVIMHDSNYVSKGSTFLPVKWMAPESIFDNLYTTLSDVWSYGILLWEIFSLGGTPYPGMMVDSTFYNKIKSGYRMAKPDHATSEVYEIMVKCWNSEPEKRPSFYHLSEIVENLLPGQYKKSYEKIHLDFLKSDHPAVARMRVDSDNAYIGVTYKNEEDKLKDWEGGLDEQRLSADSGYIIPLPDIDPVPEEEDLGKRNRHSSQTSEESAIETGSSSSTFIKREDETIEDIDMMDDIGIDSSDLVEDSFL
Chain of KIT-D816H (P10721 26-976 D816H): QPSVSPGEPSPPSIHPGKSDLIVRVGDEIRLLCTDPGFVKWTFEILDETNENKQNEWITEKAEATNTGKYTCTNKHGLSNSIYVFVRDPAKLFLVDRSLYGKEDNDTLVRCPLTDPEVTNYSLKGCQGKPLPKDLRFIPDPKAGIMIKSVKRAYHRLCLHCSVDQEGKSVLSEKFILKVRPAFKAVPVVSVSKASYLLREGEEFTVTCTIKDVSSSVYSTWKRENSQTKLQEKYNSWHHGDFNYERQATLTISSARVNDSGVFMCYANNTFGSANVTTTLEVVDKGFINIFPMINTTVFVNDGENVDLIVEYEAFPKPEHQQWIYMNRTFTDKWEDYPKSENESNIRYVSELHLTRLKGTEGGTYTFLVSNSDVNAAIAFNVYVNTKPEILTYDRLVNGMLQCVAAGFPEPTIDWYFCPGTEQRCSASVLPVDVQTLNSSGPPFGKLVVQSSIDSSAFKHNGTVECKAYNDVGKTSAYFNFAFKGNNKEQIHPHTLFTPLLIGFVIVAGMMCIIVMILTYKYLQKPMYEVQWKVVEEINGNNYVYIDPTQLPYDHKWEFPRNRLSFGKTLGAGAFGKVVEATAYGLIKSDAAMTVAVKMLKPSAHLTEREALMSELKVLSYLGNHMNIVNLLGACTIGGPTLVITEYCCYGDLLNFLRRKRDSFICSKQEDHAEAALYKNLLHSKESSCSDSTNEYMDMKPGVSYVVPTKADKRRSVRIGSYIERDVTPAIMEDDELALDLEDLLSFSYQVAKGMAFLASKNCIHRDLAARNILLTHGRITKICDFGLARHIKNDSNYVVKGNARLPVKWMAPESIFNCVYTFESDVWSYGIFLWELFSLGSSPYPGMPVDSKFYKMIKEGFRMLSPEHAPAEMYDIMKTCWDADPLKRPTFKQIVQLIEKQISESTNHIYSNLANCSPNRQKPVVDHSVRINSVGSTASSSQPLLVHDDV

SMILES | GI50 (T1-V654A; [2]) [µM] | GI50 (T1-V654A; [3]) [µM] | IC50 (PDGFRA-D842V; [4]) [µM] | IC50 (PDGFRA-D842V; [5]) | EC50 (ZR-75-1; [6]) [µM] | EC50 (ZR-75-1; [7]) [µM] | GI50 (GIST-T1; [8]) [µM] | GI50 (GIST-T1; [9]) [µM] | GI50 (T1-a-5258; [10]) [µM] | GI50 (T1-a-5258; [11]) [µM] | GI50 (T1-T670I; [12]) [µM] | GI50 (T1-T670I; [13]) [µM] | CTG GR50 SK-LMS-1, single determinations (SK-LMS-1) | ratio GIST-48B/ T1-a-D842V (GIST-48B) | GIST-48B/D842V (GIST-48B) | IC50 (KIT-D816H; [14]) [µM] | IC50 (KIT-D816H; [15]) | EC50 (MDA-MB-175VII; [16]) [µM] | EC50 (MDA-MB-175VII; [17]) [µM] | CTG GR50 SK-LMS-1 (SK-LMS-1) | other results
Cn1cc(-c2cc3c(N4CC5(CN(c6ncc(Cc7ccccc7)cn6)C5)C4)ncnn3c2)cn1 [Compound 6] | ≥ 10 | ≥ 10 | 7.35 ± 0.884 | 6.11 µM and 7.81 µM and 8.13 µM | ≥ 10 | ≥ 10 | ≥ 10 | ≥ 10 | 8.79 | 9.53 ± 0.65 | ≥ 10 | ≥ 10 | ≥10 µM | 1 | 1 | 2.16 ± 0.167 | 2.28 µM and 2.04 µM | ≥ 10 | ≥ 10 |  | 
CN(C)[C@@](C)(c1ccc(F)cc1)c1cnc(N2CCN(c3ncnn4cc(-c5cnn(C)c5)cc34)CC2)nc1 [Compound 8] | 0.999 | 1.17 ± 0.264 | 0.0004 ± 0.0001 | 0.00028 µM and 0.00038 µM and 0.00056 µM | ≥ 10 | ≥ 10 | 0.35 | 0.254 ± 0.074 | 1.4 | 1.66 ± 0.25 | 2.77 | 2.56 ± 0.258 | 5.894 µM and 10 µM | 33 | 33 | 0.0023 ± 0.0017 | 0.0035 µM and 0.0024 µM and 0.0011 µM | ≥ 10 | ≥ 10 | 8.631 ± 2.371 µM and 8.631 µM | fold decrease in potency at the biochemical level compared to avapritinib (PDGFRA-D842V; HTRF IC50, PDGFRA-D842V and KIT-D816H): 3–5 fold
CCN[C@@](C)(c1ccc(F)cc1)c1cnc(N2CCN(c3ncnn4cc(-c5cnn(C)c5)cc34)CC2)nc1 [Compound 9] | 0.532 | 0.575 ± 0.159 | < 0.0001 | < 0.0001 µM | ≥ 10 | ≥ 10 | 0.109 | 0.092 ± 0.016 | 1.16 | 1.33 ± 0.22 | 1.33 | 1.5 ± 0.223 | 7.123 µM and 10 µM | 155 | 155 | 0.0004 ± 0.0002 | 0.00026 µM and 0.00054 µM and 0.00027 µM | ≥ 10 | ≥ 10 | 9.041 ± 1.661 µM and 9.041 µM | 
CC(=O)N[C@@](C)(c1ccc(F)cc1)c1cnc(N2CCN(c3ncnn4cc(-c5cnn(C)c5)cc34)CC2)nc1 [Compound 10] | 0.268 | 0.293 ± 0.083 | < 0.0001 | < 0.0001 µM | ≥ 10 | ≥ 10 | 0.044 | 0.039 ± 0.006 | 1.57 | 2.06 ± 0.43 | 0.376 | 0.386 ± 0.039 | 6.361 µM and 10 µM | 186 | 186 | 0.0005 ± 0.0001 | 0.00038 µM and 0.00043 µM and 0.00065 µM | ≥ 10 | ≥ 10 | 8.787 ± 2.101 µM and 8.787 µM | Papp B→A at 2 h, 10 µM [1]: 5.43 ×10⁻⁶ cm/s; Papp A→B at 2 h, 10 µM [1, 18]: 11.3 ×10⁻⁶ cm/s; Papp A→B at 2 h, 10 µM ([1]; MDCK-MDR1, Papp A->B, MDCKII-MDR1, assay conc. 10, apical to basolateral): 11.3 ×10⁻⁶ cm/s; efflux ratio at 2 h, 10 µM (MDR1): 0.48; recovery at 2 h, 10 µM (MDR1; MDCK-MDR1, Recovery A->B): 44.1%; recovery at 2 h, 10 µM (MDR1; MDCK-MDR1, Recovery B->A): 48.4%
C=CC(=O)N[C@@](C)(c1ccc(F)cc1)c1cnc(N2CCN(c3ncnn4cc(-c5cnn(C)c5)cc34)CC2)nc1 [Compound 11] | 0.302 | 0.347 ± 0.108 | < 0.0001 | < 0.0001 µM | ≥ 10 | ≥ 10 | 0.046 | 0.039 ± 0.007 | 2.97 | 3.38 ± 0.36 | 0.402 | 0.413 ± 0.044 |  | 144 | 144 | 0.0005 ± 0.0002 | 0.0007 µM and 0.00054 µM and 0.00037 µM | ≥ 10 | ≥ 10 | 6.459 ± 3.067 µM and 6.459 µM | Papp B→A at 2 h, 10 µM [1]: 1.99 ×10⁻⁶ cm/s; Papp A→B at 2 h, 10 µM [1, 18]: 10.1 ×10⁻⁶ cm/s; efflux ratio at 2 h, 10 µM (MDR1): 0.2; recovery at 2 h, 10 µM (MDR1; MDCK-MDR1, Recovery A->B): 34.2%; recovery at 2 h, 10 µM (MDR1; MDCK-MDR1, Recovery B->A): 38.9%
